Data published in patent US7695728B2, “2-substituted pyridines, processes for their preparation and their use for controlling harmful fungi” (BASF Aktiengesellschaft, priority 2004, dated 2010).

SMILES | melting point [°C]
Fc1cccc(Cl)c1-c1c(NC2CCCCC2)cc(-c2ccccn2)nc1Cl [I-36] | 83
CCC(C)Nc1cc(-n2cccn2)nc(Cl)c1-c1c(F)cccc1Cl (stereo not shown) [I-15] | 108
Fc1cccc(Cl)c1-c1c(Cl)cc(-n2cccn2)nc1NC1CC1 [I-23] | 103
Fc1cccc(Cl)c1-c1c(Cl)cc(-n2cccn2)nc1N1CCCC1 [I-20] | 158
Fc1cccc(Cl)c1-c1c(Cl)cc(-c2ccccn2)nc1N1CCCC1 [I-40] | 155
Fc1cccc(Cl)c1-c1c(N2CCCC2)cc(-n2cccn2)nc1Cl [I-21] | 161
COc1ccc(CCNc2cc(-n3cccn3)nc(Cl)c2-c2c(F)cccc2Cl)cc1OC [I-58] | 201
Fc1cccc(Cl)c1-c1c(NC2CCCCC2)cc(-n2cccn2)nc1Cl [I-44] | 112
CC(C)Nc1nc(-c2ccccn2)cc(Cl)c1-c1c(F)cccc1Cl [I-39] | 67
CC1CCN(c2cc(-c3ncccn3)nc(Cl)c2-c2c(F)cccc2Cl)CC1 [I-54] | 129
CC(C)Nc1cc(-n2cncn2)nc(Cl)c1-c1c(F)cccc1Cl [I-13, 2-Chloro-3-(2-chloro-6-fluorophenyl)-4-(2-propylamino)-6-([1,2,4]triazol-1-yl)pyridine] | 152
CC1CCN(c2nc(-c3ncccn3)cc(Cl)c2-c2c(F)cccc2Cl)CC1 [I-53] | 129
Cc1cccc(-c2cc(Cl)c(-c3c(F)cccc3Cl)c(NC(C)C)n2)n1 [I-45] | 131
Fc1cccc(Cl)c1-c1c(Cl)cc(-c2ccccn2)nc1NC1CCC(c2ccccc2)CC1 (stereo not shown) [I-24] | 162
COc1ccc(CCNc2cc(-c3ccccn3)nc(Cl)c2-c2c(F)cccc2Cl)cc1OC [I-56] | 78
Fc1cccc(Cl)c1-c1c(NC2CC2)cc(-n2cccn2)nc1Cl [I-22] | 164

SMILES | melting point [°C]
CCC(C)Nc1nc(-n2cccn2)cc(Cl)c1-c1c(F)cccc1Cl (stereo not shown) [I-16] | 114
CC1CCN(c2cc(-c3ccccn3)nc(Cl)c2-c2c(F)cccc2Cl)CC1 [I-31] | 119
COc1ccc(CCNc2nc(-n3cccn3)cc(Cl)c2-c2c(F)cccc2Cl)cc1OC [I-57] | 59
Fc1cccc(Cl)c1-c1c(NC2CCC(c3ccccc3)CC2)cc(-c2ccccn2)nc1Cl (stereo not shown) [I-25] | 181
Fc1cccc(Cl)c1-c1c(Cl)cc(-n2cccn2)nc1NC1CCC(c2ccccc2)CC1 (stereo not shown) [I-5] | 78
CC(C)Nc1cc(-c2nccs2)nc(Cl)c1-c1c(F)cccc1Cl [I-48] | 78
CC(C)(C)C1CCC(Nc2nc(-n3cccn3)cc(Cl)c2-c2c(F)cccc2Cl)CC1 (stereo not shown) [I-9] | 126
Cc1nc(-c2cc(NC(C)C)c(-c3c(F)cccc3Cl)c(Cl)n2)sc1C [I-50] | 183
Fc1cccc(Cl)c1-c1c(NC2CCC(c3ccccc3)CC2)cc(-n2cccn2)nc1Cl (stereo not shown) [I-4] | 170
Fc1cccc(Cl)c1-c1c(Cl)cc(-n2cccn2)nc1NC1CCCCC1 [I-43] | 152
CC(C)Nc1nc(-c2nc3ccccc3s2)cc(Cl)c1-c1c(F)cccc1Cl [I-51] | 119
CC(C)(C)C1CCC(Nc2cc(-c3ccccn3)nc(Cl)c2-c2c(F)cccc2Cl)CC1 (stereo not shown) [I-27] | 163
CC1CCN(c2nc(-n3cccn3)cc(Cl)c2-c2c(F)cccc2Cl)CC1 [I-19] | 120
CC(C)Nc1nc(-n2cncn2)cc(Cl)c1-c1c(F)cccc1Cl [I-14, 4-chloro-3-(2-chloro-6-fluorophenyl)-2-(2-propylamino)-6-([1,2,4]triazol-1-yl)pyridine] | 152
CC(C)Nc1cc(-c2nc3ccccc3s2)nc(Cl)c1-c1c(F)cccc1Cl [I-52] | 154
